The source of these data is patent publication US20010049374A1 (priority 1997, published 2001).

As a reminder, the IC50 is the concentration at which inhibition is half-maximal.

Where two headings read alike, the source gives them in different places.

This experiment deals with T1, urokinase enzyme Abbokinase (Homo sapiens, UniProt P00749).
T1 construct: purchased Abbott Laboratories, Abbott Park, Ill
Nature of the experiment: Determination of urokinase inhibition (Abbokinase, chromogenic substrate S-2444). The experiment is classed as biochemical. As to conditions: read-out: IC50.

The mark [1] stands for this setting: Inhibitory potency against urokinase, substrate S-2444 at 200 μM, enzyme 2-3 nM, pH 7.4, 405 nm.

For “1,1-Dimethylethyl [4- [[(6-aminoiminomethyl-2-naphthalenyl)amino]carbonyl]phenyl]carbamate [Example 76]”, the IC50 under setting [1] was determined as 960 nM.
“1,1-dimethylethyl [2-[3-[6-(aminoiminomethyl)-2-naphathalenyl]ethynyl]-6-methoxyphenyl]ethyl]carbamate [Example 122]”: the half-inhibitory concentration (IC50) under setting [1] came to 330 nM.
Regarding “1,1-dimethylethyl [[4-[[[6-(aminoiminomethyl)-2-naphathalenyl]amino]carbonyl]phenyl]methyl]carbamate [Example 135]”, under setting [1], the IC50 was found to be 1910 nM.
On to “1-[(7-Aminoiminomethyl-2-methoxy-1-naphthalenyl)oxy]-3-hydroxypropane [Example 10]”, for which the IC50 under setting [1] was found to be 3200 nM.
“1-[(7-Aminoiminomethyl-2-methoxy-1-naphthalenyl)oxy]-3-phenylpropane [Example 23]”: the IC50 under setting [1] turned out to be 4000 nM.
Regarding “1-[(7-aminoiminomethyl-2-methoxy-1-naphthalenyl)oxy]-3-bromopropane [Example 21]”, the IC50 under setting [1] stood at 1700 nM.
For “2-[(7-Aminoiminomethyl-3-methoxy-1-naphthalenyl)oxy]acetamide [Example 39]”, the IC50 under setting [1] came out at 12200 nM.
“3-[(7-Aminoiminomethyl-2-methoxy-1-naphthalenyl)oxy]propene [Example 22]”: the IC50 under setting [1] is 1700 nM.
Still for that read-out and setting: as for “4-Amino-N-[3-(6-aminoiminomethyl-2-naphthalenyl)-2-propynyl]benzamide [Example 36]”, the figure is 1750 nM; as for “4-[7-(Aminoiminomethyl)-2-methoxy-1-naphthalenyl]dihydro-2(3H)-furanone [Example 85]”, 1380 nM; as for “4-[(6-Aminoiminomethyl-2-naphthalenyl)oxy]-N-methylbenzeneacetamide [Example 56]”, 2900 nM.
As for “4-[[6-(aminoiminomethyl)-2-naphthalenyl]ethynyl]-L-phenylalanine [Example 109]”, under setting [1], the IC50 amounted to 2850 nM.
In the case of “4-[[[7-(aminoiminomethyl)-1-(2-pyrimidinylamino)-2-naphthalenyl]oxy]methyl]benzoic acid [Example 134]”, the IC50 under setting [1] amounted to 64 nM.
Turning to “5-[[6-(aminoiminomethyl)-2-naphthalenyl]oxy]pentanoic acid [Example 129]”, the IC50 under setting [1] was determined as 4840 nM.
Turning to “6-(aminoiminomethyl)-4-(3-furanyl)-N-(1H-pyrazol-3-yl)-2-naphthalenecarboxamide [Example 116]”, the IC50 under setting [1] turned out to be 45 nM.
Regarding “6-(aminoiminomethyl)-4-(3-furanyl)-N-(2-pyridinyl)-2-naphthalenecarboxamide [Example 146]”, under setting [1], the IC50 worked out at 372 nM.
For the substance “6-(aminoiminomethyl)-4-(3-furanyl)-N-(3-pyridinyl)-2-naphthalenecarboxamide [Example 117]”, the IC50 under setting [1] came out at 278 nM.
“6-(aminoiminomethyl)-4-(3-furanyl)-N-(4-pyridinyl)-2-naphthalenecarboxamide [Example 115]”: the IC50 under setting [1] amounted to 63 nM.
On the same count and under the same terms, the figure for “6-(aminoiminomethyl)-4-(3-furanyl)-N-[4-(trifluoromethyl)phenyl]-2-naphthalenecarboxamide [Example 114]” is 344 nM.
Consider “6-(aminoiminomethyl)-4-(3-furanyl)-N-phenyl-2-naphthalenecarboxamide [Example 152]”, for which the IC50 under setting [1] was found to be 83 nM.
Take “6-(aminoiminomethyl)-4-[1-(methylsulfonyl)-1H-pyrazol-4-yl]-N-phenyl-2-naphthalenecarboxamide [Example 153]”: the IC50 under setting [1] is 877 nM.
Still for that read-out and setting: the figure for “6-(aminoiminomethyl)-4-[5-(ethylsulfonyl)-3-furanyl]-N-phenyl-2-naphthalenecarboxamide [Example 227]” is 15 nM; for “6-(aminoiminomethyl)-4-[5-(ethylthio)-3-furanyl]-N-phenyl-2-naphthalenecarboxamide [Example 200]” it is 37 nM.
As for “6-(aminoiminomethyl)-4-[5-(methoxymethyl)-3-furanyl]-N-phenyl-2-naphthalenecarboxamide [Example 230]”, the IC50 under setting [1] stood at 103 nM.
Same read-out and setting: as for “6-(aminoiminomethyl)-4-[5-(methylsulfonyl)-3-furanyl]-N-phenyl-2-naphthalenecarboxamide [Example 231]”, the figure is 15 nM.
For “6-(aminoiminomethyl)-4-[5-(propylsulfonyl)-3-furanyl]-N-phenyl-2-naphthalenecarboxamide [Example 228]”, the IC50 under setting [1] stood at 25 nM.
Still for that read-out and setting: the figure for “6-(aminoiminomethyl)-N-(1,2,3,4-tetrahydro-6-quinolinyl)-2-naphthalenecarboxamide [Example 147]” is 213 nM; for “6-(aminoiminomethyl)-N-(1,3-benzodioxol-5-yl)-2-naphthalenecarboxamide [Example 188]” it is 220 nM; for “6-(aminoiminomethyl)-N-(1, 2, 3, 4-tetrahydro-2, 4-dioxo5-pyrimidinyl)-2-naphthalenecarboxamide [Example 189]” it is 1300 nM.
Consider “6-(aminoiminomethyl)-N-(1H-imidazolyl)-2-naphthalenecarboxamide [Example 214]”, for which the IC50 under setting [1] is 2560 nM.
Turning to “6-(aminoiminomethyl)-N-(1H-indazol-5-yl)-2-naphthalenecarboxamide [Example 204]”, the IC50 under setting [1] was 331 nM.
Regarding “6-(aminoiminomethyl)-N-(1H-indazol-6-yl)-2-naphthalenecarboxamide [Example 203]”, the IC50 under setting [1] amounted to 624 nM.
Still for that read-out and setting: as for “6-(aminoiminomethyl)-N-(1H-indol-5-yl)-2-naphthalenecarboxamide [Example 205]”, the figure is 337 nM.
“6-(aminoiminomethyl)-N-(1H-pyrazol-3-yl)-2-naphthalenecarboxamide [Example 191]”: the IC50 under setting [1] is 887 nM.
Consider “6-(aminoiminomethyl)-N-(2,3-dihydro-1H-inden-5-yl)-2-naphthalenecarboxamide [Example 118]”, for which the IC50 under setting [1] worked out at 121 nM.
As for “6-(aminoiminomethyl)-N-(2-methyl-6-quinolinyl)-2-naphthalenecarboxamide [Example 217]”, the IC50 under setting [1] was 670 nM.
As for “6-(aminoiminomethyl)-N-(2-naphthalenyl)-2-naphthalenecarboxamide [Example 143]”, under setting [1], the IC50 is 360 nM.
For “6-(aminoiminomethyl)-N-(2-thiazolyl)-2-naphthalenecarboxamide [Example 186]”, the IC50 under setting [1] turned out to be 2980 nM.
As to “6-(aminoiminomethyl)-N-(3, 4, 5-trimethoxyphenyl)-2-naphthalenecarboxamide [Example 195]”, under setting [1], the IC50 was 1300 nM.
On the same count and under the same terms, as for “6-(aminoiminomethyl)-N-(3, 5-difluorophenyl)-2-naphthalenecarboxamide [Example 190]”, the figure is 565 nM; as for “6-(aminoiminomethyl)-N-(3-ethoxyphenyl)-2-naphthalenecarboxamide [Example 223]”, 70 nM; as for “6-(aminoiminomethyl)-N-(3-methyl-2-pyridinyl)-2-naphthalenecarboxamide [Example 196]”, 620 nM.
“6-(aminoiminomethyl)-N-(3-phenoxyphenyl)-2-naphthalenecarboxamide [Example 221]”: the IC50 under setting [1] was found to be 520 nM.
“6-(aminoiminomethyl)-N-(3-propoxyphenyl)-2-naphthalenecarboxamide [Example 218]”: under setting [1], the half-maximal inhibitory concentration (IC50) came out at 86 nM.
Turning to “6-(aminoiminomethyl)-N-(3-pyridazinyl)-2-naphthalenecarboxamide [Example 209]”, under setting [1], the IC50 was determined as 820 nM.
Regarding “6-(aminoiminomethyl)-N-(4-ethylphenyl)-2-naphthalenecarboxamide [Example 142]”, the IC50 under setting [1] was 540 nM.
With “6-(aminoiminomethyl)-N-(4-methyl-2-thiazolyl)-2-naphthalenecarboxamide [Example 199]”, under setting [1], the IC50 was 2300 nM.
Same read-out and setting: as for “6-(aminoiminomethyl)-N-(4-methylphenyl)-2-naphthalenecarboxamide [Example 132]”, the figure is 960 nM.
On the same count and under the same terms, as for “6-(aminoiminomethyl)-N-(4-nitrophenyl)-2-naphthalenecarboxamide [Example 224]”, the figure is 1770 nM.
As for “6-(aminoiminomethyl)-N-(5-bromo-2-pyridinyl)-2-naphthalenecarboxamide [Example 210]”, the 50% inhibitory concentration (IC50) under setting [1] was 780 nM.
Turning to “6-(aminoiminomethyl)-N-(5-methyl-2-pyridinyl)-2-naphthalenecarboxamide [Example 198]”, the IC50 under setting [1] came out at 504 nM.
In the case of “6-(aminoiminomethyl)-N-(5-pyrimidinyl)-2-naphthalenecarboxamide [Example 208]”, the IC50 under setting [1] turned out to be 960 nM.
For the substance “6-(aminoiminomethyl)-N-(6-methoxy-3-pyridinyl)-2-naphthalenecarboxamide [Example 187]”, under setting [1], the IC50 came to 613 nM.
Regarding “6-(aminoiminomethyl)-N-(6-methyl-2-pyridinyl)-2-naphthalenecarboxamide [Example 194]”, under setting [1], the IC50 is 560 nM.
For “6-(aminoiminomethyl)-N-(6-quinolinyl)-2-naphthalenecarboxamide [Example 202]”, the IC50 under setting [1] was 792 nM.
In the case of “6-(aminoiminomethyl)-N-(pyrazinyl)-2-naphthalenecarboxamide [Example 193]”, the concentration for half-maximal inhibition (IC50) under setting [1] came out at 850 nM.
Turning to “6-(aminoiminomethyl)-N-[3-(1-ethylpropoxy)phenyl]-2-naphthalenecarboxamide [Example 219]”, the IC50 (pH 7.4) was determined as 103 nM.
For the substance “6-(aminoiminomethyl)-N-[3-(1-methylethoxy)phenyl]-2-naphthalenecarboxamide [Example 211]”, the IC50 under setting [1] is 72 nM.
Consider “6-(aminoiminomethyl)-N-[3-(cyclobutylmethoxy)phenyl]-2-naphthalenecarboxamide [Example 225]”, for which, under “pH 7.4”, the IC50 was 104 nM.
Consider “6-(aminoiminomethyl)-N-[3-(cyclopentyloxy)phenyl]-2-naphthalenecarboxamide [Example 220]”, for which the IC50 under setting [1] is 30 nM.
